{"source": "paper PMC4684281", "about": "“Antitumor Effects and Mechanism of Novel Emodin Rhamnoside Derivatives against Human Cancer Cells In Vitro” (PLoS ONE, 2015)", "key": {"MDCK cells": {"test_system": "MDCK cells", "test": "MTT cell viability assay, MDCK", "format": "cell-based, Canine", "conditions": "Canis lupus familiaris, 72 hours", "description": "The viability of cancer cells was evaluated by MTT assay. Briefly, cells were inoculated in 96-well culture plates at the density of 1×10^4/well with complete medium containing 10% fetal calf serum in a final volume of 0.2 mL. Cells were incubated at 37°C for at least 24 hours to allow optimal attachment. When the cells reached 60% confluence, they were treated with Cisplatin, HCPT and emodin rhamnopyranosides derivatives in various concentrations, and incubated in a humidity-controlled 5%CO2 incubator at 37°C for 72 hours. Medium were exchanged once every 24 hours. Cell control group and blank group were set up in the same manner, with each group having six parallel wells. Cell survival was assessed by directly adding 22 μL of 5mg/mL MTT to 0.2 mL medium. After three hours, the formazan precipitate was dissolved in 200μL isopropanol per well, and completely mixed under room temperature. Afterwards, the optical density of each well was detected at 570 nm wavelength by iMark microplate reader (Bio-rad,USA). This experiment was repeated at least three times."}, "HepG2 cells [1]": {"test_system": "HepG2 cells", "test": "Cell cycle analysis (PI staining)", "format": "cell-based, Human", "conditions": "48h; for Percentage of cell cycle distribution, G2/M: control 9.68±3.46%; for Percentage of cell cycle distribution, G0/G1: control 67.48±3.94%", "description": "HepG2 cells in logarithmic growth phase were inoculated in 10cm culture plates at density of 5×10^5 cells and incubated overnight and allowed to attach. After being exposed to EM-d-Rha at specific concentrations for 48h, cells were harvested and washed with cold PBS twice. Then the collected cells were fixed with 1mL PBS and 3mL cold 100% ethanol at 4°C overnight. After that, the cells were again harvested by centrifugation at 300×g for 10 min. The cells were washed with cold PBS and re-suspended in 450 μL PBS, and then treated with 50μL ribonuclease (RNase,10mg/mL) at 37°C for 15min. 500μL of propidium iodide (PI, 50μg/ml) was added to the samples. After the cells were incubated for 30 min at 4°C in the dark, the cell cycle distribution was measured using an BD FACSCalibur Flow cytometer (BD Biosciences, USA), and 10,000cells were counted for each sample. The percentage of cells in different phases of the cell cycle was analyzed by flow Jo (BD Biosciences, USA). The experiment was repeated three times."}, "[2]": {"test_system": "Caspase-3 gene expression of HepG2 cells", "test": "RT-qPCR gene expression, Caspase-3", "format": "cell-based, Human", "conditions": "48 hours, control 1.022±0.258", "description": "HepG2 cells were inoculated in 6-well culture plates at a density of 3×10^5 cells/well, and allowed to attach at 37°C for 24 hours. Then cells were treated with specific concentrations of EM-d-Rha and incubated in a humidified incubator supplied with 5% CO2 at 37°C for 48 hours. Medium were changed once every 24 hours. Afterwards, mRNA was extracted from every group using E.Z.N.A.^TM Total RNA Kit II according to the manufacturer’s instructions. The extracted mRNA was dissolved in 20 μL ddH2O (Qiagen) containing diethyl pyrocarbonate (DEPC). The concentration of mRNA was quantified with a NanoDrop ND-100 device (Thermo Fisher Scientific). cDNA was synthesized using 3μg of the extracted mRNA from each sample with PCR system (BIO-RAD,USA). The cDNA synthesis reaction was prepared according to the manufacturer’s instructions by mixing 3μg mRNA, 4.0μL 5× MMLV buffer, 3 μL oligodT18, 0.5μL 10 mM dNTP solution, 0.8μL RNase inhibitor, 3.7μL MMLV Rtase, and 6.0μL DEPC ddH2O in PCR tubes. The reaction condition was 5min at 70°C, 60 min at 42°C and 10min at 4°C. The products were used for subsequent RT-qPCR analysis. The level of mRNA expression was measured by RT-qPCR using a CFX96^TM C1000 Real-Time PCR System (BIO-RAD, USA).The primers were designed using idt.dna software system (http //www.idtdna.com). The specific primers were: Cyto C: 5′-[…]-3′ (forward), 5′- […] -3′ (reverse); Caspase 3: 5′- CCTACAGCCCATTTC TCCATAC-3′ (forward), 5′-[…]-′ (reverse); β-actin: 5′-[…]-3′ (forward), 5′-[…]-3′ (reverse). The product sizes of Cyto C, Caspase 3 and β-actin were 91bp, 125bp and 107bp, respectively. […]\nMaster Mix (Promega), 0.3μL of each primer (10μM), and 1.0 μL cDNA template. […] Each sample was analyzed in quadruplicate and mean was used for further analysis. The mRNA expression levels of each sample were quantified by measuring the threshold cycle (CT) values of genes. The relative values of the target gene expression were calculated according to CT values of the target genes and the reference gene (β-actin) by applying Livak and Schmittgen method. […]"}, "HepG2 cells [3]": {"test_system": "HepG2 cells", "test": "Fluorescence microscopy assay (Hoechst 33342)", "format": "cell-based, Human", "conditions": "HepG2, varying concentrations (0.1μM; 0.5μM; 2.5μM), 48h, dosage-dependent", "description": "HepG2 cells were inoculated in duplicate at 3×10^5/well density in 6-well plate, and allowed to attach at 37°C for 24 hours. Afterwards, cells were treated with 10 μM HCPT, 25 μM emodin and specific concentration EM-d-Rha (0.1μM, 0.5μM, 2.5μM), respectively. Cell control group was set in the same way. […] Medium were exchanged as described previously. In the end, all medium were discarded and cells were digested with 2mL 0.25% Trypsin-EDTA solution at 37°C for 5 min. After cells were harvested, cells were washed with PBS twice followed by centrifuging at 300×g for 5 minutes. Finally, cells were re-suspended in 100μL cold PBS after the supernatant was discarded. Cells were cultured in the dark for 10 minutes at room temperature after adding 100μL 1mg/mL Hoechst 33342 staining solution. Cells were harvested again as described previously to discard the staining solution. Wash the harvested cells twice with PBS before applying to the clean glass slides. The morphological changes of cells nuclei were observed and photographed under the fluorescence microscope (Olympus, Japan) at 350 nm excitation wavelength. The experiment was repeated three times."}}, "note": "Several values for one entry are separate records, joined by “and”; a condition that tells them apart may be missing. Equal values may be shown once.", "data": [{"smiles": "CC(=O)O[C@@H]1[C@@H](O[C@@H]2O[C@@H](C)[C@H](O)[C@@H](OC(C)=O)[C@H]2OC(C)=O)[C@H](C)O[C@@H](Oc2cc(O)c3c(c2)C(=O)c2cc(C)cc(O)c2C3=O)[C@@H]1OC(C)=O", "note": "[S-8, 3-(2”,3”-Di-O-acetyl-α-L-rhamnopyranosyl-(1→4)-2’,3’-di-O-acetyl-α-L-rhamnopyranosyl)-emodin]", "values": [{"measurement": "IC50", "setting": "MDCK cells", "value": 18.5, "unit": "µg/mL"}, {"measurement": "Percentage of cell cycle distribution, G2/M", "setting": "HepG2 cells [1]; HepG2, 2.5μM", "value": "7.01±1.73", "unit": "%"}, {"measurement": "Percentage of cell cycle distribution, S", "setting": "HepG2 cells [1]; HepG2, 2.5μM, control 23.19±2.18%, listed as EM-d-Rha", "value": "28.59% and 28.59±3.75%"}, {"measurement": "Percentage of cell cycle distribution, G0/G1", "setting": "HepG2 cells [1]; HepG2, 2.5μM", "value": "61.37±2.16", "unit": "%"}, {"measurement": "Percentage of cell cycle distribution, G2/M", "setting": "HepG2 cells [1]; HepG2, 5.0μM", "value": "10.31±3.08", "unit": "%"}, {"measurement": "Percentage of cell cycle distribution, G0/G1", "setting": "HepG2 cells [1]; HepG2, 5.0μM", "value": "51.03±8.84", "unit": "%"}, {"measurement": "Percentage of cell cycle distribution, G2/M", "setting": "HepG2 cells [1]; HepG2, 10.0μM", "value": "7.96±2.07", "unit": "%"}, {"measurement": "Percentage of cell cycle distribution, G0/G1", "setting": "HepG2 cells [1]; HepG2, 10.0μM", "value": "52.35±9.37", "unit": "%"}, {"measurement": "Caspase-3 mRNA expression level relative to controls", "setting": "[2]; HepG2, 0.70μM", "value": "0.949±0.259", "unit": "fold"}, {"measurement": "Caspase-3 mRNA expression level relative to controls", "setting": "[2]; HepG2, 1.40μM", "value": "0.900±0.190", "unit": "fold"}, {"measurement": "Caspase-3 mRNA expression level relative to controls", "setting": "[2]; HepG2, 5.60μM", "value": "4.413±3.730", "unit": "fold"}, {"measurement": "Nuclear morphology, Hoechst 33342", "setting": "HepG2 cells [3]", "value": "nuclear shrinkage and DNA condensation"}]}]}
